We go through 1 compound from patent US5498632A, “Esters of acyl carnitines with long-chain aliphatic alcohols and pharmaceutical compositions containing same having antibacterial activity” (Sigma-Tau Industrie Farmaceutiche Riunite S.p.A., priority 1992, dated 1996).

Several values for one entry are separate records, joined by “and”; a condition that tells them apart may be missing. Identical values can stand only once.

Series [1] relates to Helicobacter pylori NCTC 11637. Description: In vitro synergistic effect of ST 722 and Bismuth Subcitrate. Type of series: cell-based. The procedure:
CBS from the commercially available product De-Nol® (Gist-Brocades, Netherland), i.e. ammonium and potassium double salt of colloidal bismuth citrate hydroxide, was utilized by preparing a suspension of 10 mg/ml CBS in 1N NaOH. After diluting 1:10 in Mueller-Hinton broth, 8 serial two-fold dlitutions in the same medium were made. The compound ST 722 was dissolved in Mueller-Hinton broth at a starting concentration of 100 mcg/ml, then 7 serial two-fold dilutions were carried out.
The "in vitro" anti-Helicobacter activity of both CBS and ST 722, alone and in association, was tested by utilizing the strain H. pylori NCTC 11637.
A 24-hour culture of Helicobacter in Columbia agar medium supplemented with Vitox (Oxoid) and 7% defribinated horse blood is washed with Mueller-Hinton broth.
Following densitometric evaluation (reading at 600 nm), the bacterial suspension was adjusted to a concentration of 1.0×10^9 cells/ml and 0.2-ml volumes were distributed into each well of a 96-well U-bottomed microtiter plate.
A 1-μl volume of this bacterial suspension was then distributed, by means of a Steers-type replicator apparatus, into the wells of microtiter plates containing the substances, either alone or in association. The final bacterial inoculum contained approximately 1.0×10^6 bacterial cells.
The procedure described by Garrod et al. (GARROD, L. P. and WATERWORTH, P. M., 1962. Methods of testing combined antibiotic bactericidal action and the significance of the results. J. Clin. Pathol. 15, 328-338) was utilized.
Briefly, 250-μl volumes of each test substance, either alone or admixed in all the possible combinations, were additioned to 4.5 ml of Mueller-Hinton agar containing 5% defribinated horse serum. Volumes of 0.2 ml/well of the resulting solution were distributed into the wells of a microtiter plate, then seeded with 1 μl/well of a standardized bacterial suspension, and finally incubated for 48 hours at 37° C. in a 10% CO2 atmosphere.
In order to evaluate the results obtained with combinations of antibiotics it was utilized the method (KROGSTAD, D. J. and MOELLERING, R. C., 1983. Antimicrobial combinations. In LORIAN, V., Antibiotics in Laboratory Medicine, 15, 537-549) based on the calculation of the Fractional Inhibitory Concentration Index (FIC index).
FIC index is calculated as follows: [formula] Where (A) is the MIC of substance A in the association and (MICA) is the […] of the organism to substance A alone. FICA is the fractional inhibitory concentration of substance A. (B), (MICB) and FICB are defined in the same fashion for substance B.
Based on these criteria, the effect of a combination of 2 substances is referred to as 'synergistic" when the FIC index is ≤0.5, "additive" with a FIC index=1, and "antagonist" when FIC index is >1.

The subject of another series is mice. The experiment in a line: Assessment of behaviour and mortality in mice (Irwin's method). Set-up: species or system mouse (male Crl:(CD-1)(ICR)BR). The note with it: mouse, in vivo, po. The method, then: (§1) The assessment of normal behaviour in mice was carried out following S. Irwin's method (Psychopharmacologia, 13, 222 [1968]). This method allows alterations in some behavioural, neurophysiologic and neurovegetative parameters to be detected, which are directly observable by the researcher. The study was conducted using male Crl:(CD-1)(ICR)BR mice (Charles River--Italy) weighing 22-25 g, following oral administration of the compounds suspended in carboxymethylcellulose (0.5% by weight in H2 O) to groups of 4 animals/dose.
(§2) The animals were continously kept under observation for five hours following treatment and twice a day in the subsequent five days. Mortality was also observed during the overall test period.

Experiment in series [2]: as above
Set-up: species or system mouse (male Crl:(CD-1)(ICR)BR). The note with it: mouse, in vivo; oral, dose 1000, 4 animals/dose. The procedure:
as §1, §2

In series [3] the test system is Staphylococcus aureus (S. aureus LC1). The experiment in a line: Protective effect in subcutaneous experimental infection in mice. It counts as in vivo, Staphylococcus aureus in mouse (male CD1). The note with it: for Number of bacteria/mouse: 24 hours. The procedure:
Male CD1 (C. River) mice aged 9 weeks were used (4 animals per group).
A pathogenic strain of Staphylococcus aureus (S. aureus LC1), isolated from a systemic infection in nude mice, was utilized.
The bacterial cells (kept under liquid nitrogen) are thawed and seeded in 10 ml of TSB medium and finally incubated for approximately 18 hours at 37° C.
The culture is then diluted in sterile saline so as to have 2.2×10^7 bacterial cells in a volume of 0.2 ml.
ST 722 was administered subcutaneously, immediately after bacterial inoculation, at the doses of 5, 20, and 50 mcg in 0.2 ml of sterile saline (single treatment).
ST 722 was administered subcutaneously at a dose of 50 mcg (in 0.2 ml of sterile saline) immediately after bacterial inoculation and again 5 hours later, i.e. 100 total mcg per mouse (double treatment).
The "in vivo" experimental model described by Grunberg et al. (GRUNBERG, E., BERGER, J., BESKID, G., CLEELAND, R., PRINCE, N. H. and TITSWORTH, E., 1967. Studies on the "in vitro" and "in vivo" chemotherapeutic properties of the antibiotics myxin. Chemotherapia 12, 272-281) was utilized.
Briefly, it consisted of a subcutaneous injection into the center of the abdominal wall of the standardized bacterial suspension followed by the s.c. administration of the substance in the same area according to the 2 protocols above.
After 24 hours, the animals were sacrificed, and the abdominal wall (including the peritoneum) was exicised from each animal.
The tissue samples were first homogenized by a Potter-Elvehjem tissue grinder in 5 ml of a sterile saline, then a bacterial count was performed by plating the samples onto a S. aureus selective medium (Baird-Parker agar additioned with Ey tellurite enrichment), which allows to easily detect the number of Staphylococcus colonies.
The number of colonies scored in a series of dilutions for each single sample consents to calculate the number of bacterial cells present in the infected tissue sample as follows: [formula] Where Zi is the number of dilutions performed, Ni is the number of plates prepared for each dilution, and Ci is the total number of bacteria scored in each dilution.

Consider `CCCCCCCCCCCOC(=O)CC(C[N+](C)(C)C)OC(=O)CC(C)C` [ST 722, Isovaleryl-L-Carnitine Undecyl Ester Chloride], for which the MIC (in general, the least concentration at which growth counts as inhibited) in series [1] (Helicobacter pylori, NCTC11637, substance alone, H. pylori NCTC 11637, 48 hours, read-out: MIC) came to 1.56 µg/mL. Further, in series [1] (ST 722 with CBS), the “FIC (fractional inhibitory concentration)” value amounted to 0.12. For the same compound, in the series with mice, the Symptoms result was “salivation, diarrhoea”. Moreover, in series [2], the mortality (commonly the percentage killed) at 120 h was found to be 0%. For the same compound, the Number of bacteria/mouse in series [3] (double treatment s.c., 50 mcg twice (5 hours apart)) is 3.1×10^5 bacteria/mouse and 5.61 × 10^5 bacteria/mouse; in series [3] (single treatment s.c., 5 mcg, control 1.11 × 10^8), 1.21 × 10^8 bacteria/mouse; in series [3] (single treatment s.c., 20 mcg, control 1.11 × 10^8) it was 1.21 × 10^8 bacteria/mouse; in series [3] (single treatment s.c., 50 mcg, control 1.11 × 10^8), 5.61 × 10^5 bacteria/mouse. The “reduction of the infective process” value in series [3] (single treatment s.c., 5 mcg) is listed as “unable to reduce the infective process”. Moreover, the “reduction of bacterial infection extent” value in series [3] (single treatment s.c., 20 and 50 mcg) was “dose-dependently reduced in an appreciable manner the bacterial infection extent”.
